How the values were obtained:
Assay type in all cases: cell-based
WT RyR2 = molecular target: T1, WT RyR2 (Mus musculus, UniProt E9Q401); experiment: Time-lapse [Ca2+]ER assay (RyR2 R-CEPIA1er assay) in HEK-293 cells; details: 25 µM, vs. 0.1 v/v% DMSO
T1 construct: expressed in transfected cells
Procedure: HEK-293 cells stably expressing R-CEPIA1er and WT RyR2 (generous gift from Takashi Murayama, Juntendo University School of Medicine, Tokyo) were cultured in Dulbecco's Modified Eagle medium (DMEM, Thermo Fisher Scientific, Darmstadt, Germany) supplemented with 10% fetal bovine serum (FBS, Thermo Fisher Scientific, Darmstadt, Germany), 0.9% Penicillin/Streptomycin (Merck KGaA, Darmstadt, Germany), 15ug/mL Blasticidine (Invivogen, Toulouse, France), 100 µg/mL Hygromycin (Merck KGaA, Darmstadt, Germany) and 400 µg/mL G418 (Thermo Fisher Scientific, Darmstadt, Germany) in a humidified 5% COz incubator at 37 °C. To induce the expression of WT RyR2 in the endoplasmic reticulum (ER), 2 µg/mL Doxycycline (Merck KGaA, Darmstadt, Germany) was added 24 h before experiments.
The fluorescent plate reader [Ca^2+]ER assay was performed according to the slightly modified protocol of Murayama & Kurebayashi [T. Murayama, N. Kurebayashi, Assays for Modulators of Ryanodine Receptor (RyR)/Ca(2+) Release Channel Activity for Drug Discovery for Skeletal Muscle and Heart Diseases. Curr. Protoc. […] After the cells were inducted with Doxycycline for 24 h, changes in ER calcium concentrations [Ca^2+]ER were measured on a multiwell plate reader TECAN Spark 20M at 37 °C. The 1000 × stock solutions of the test compounds were prepared in DMSO. Briefly, the culture medium was removed and 100 µl of Tyrode's solution containing 2 mM CaCl2 was added to the cells. The time courses were recorded in each well. Fluorescence was evoked by 560 nm excitation wavelength and collected in a bottom-read mode at 610 nm. Data was recorded every 10 s, exposure - 20 flashes, excitation bandwidth - 20 nm, emission bandwidth - 20 nm. 100 µl of 0 - 100 µM solution of test compound in Tyrode's solution containing 2 mM CaCh was injected in each well (speed 100 µl/s) at the 90 s time point. […] The 0.1 v/v% DMSO and 2 mM CaCh Tyrode's solution was used as a control.
The dose response curves were calculated using the software package GraphPad Prism version 8.3.1. (GraphPad Software, Inc.). All data are presented as mean ± S.D. in 3 independent experiments. Y=Bottom + (Top-Bottom)/(1+10^((LogEC50-X)*HillSlope)) was used where HillSlope describes the steepness of the curve, Top and Bottom are plateaus in the units of the Y axis.
The inventors measured changes in Ca^2+ levels in the endoplasmic reticulum (ER) of HEK-293 cells with inducible expression of wild-type RyR2 (WT RyR2) [T. Murayama, N. Kurebayashi, M. Ishigami-Yuasa, S. Mori, Y. Suzuki, R. Akima, H. Ogawa, J. Suzuki, K. Kanemaru, H. Oyamada, Y. Kiuchi, M. Iino, H. Kagechika, T. Sakurai, Efficient High-Throughput Screening by Endoplasmic Reticulum Ca(2+) Measurement to Identify Inhibitors of Ryanodine Receptor Ca(2+)-Release Channels. […] The cells additionally stably express the Ca^2+ fluorescence indicator R-CEPIA1er, which is a genetically encoded sensor protein of Ca^2+ in the ER ([Ca^2+]ER) [T. Murayama, N. Kurebayashi, Assays for Modulators of Ryanodine Receptor (RyR)/Ca(2+) Release Channel Activity for Drug Discovery for Skeletal Muscle and Heart Diseases. Curr. Protoc.
The fluorescence ratio F/F0 was calculated, where F0 - is the average fluorescence for the first 90 s, F - is the average fluorescence for the last 100 s, and normalized.

[1] = tested on: saponin-permeabilized ventricular cardiomyocytes (sp-vCM) from RyR2R2474S/+ mice; experiment: Ca2+ wave decay in saponin-permeabilized ventricular cardiomyocytes, RyR2R2474S/+ mice; details: 10 µM, result in words
From the text: (§1) • Figure 1: Synthesis scheme showing the synthesis of multifunctional compounds with cyclopropanol residues based on 1,4 -benzothiazepines. The respective reaction conditions (a) to (i) are as follows: (a) Jones reagent, aceton; (b) H2SO4, EtOH; (c) EtMgBr, Ti(OiPr)4, EtzO; (d) t-BuMe2SiOSO2CF3, 2,6-lutidine, DCM; (e) Hz, Pd/C, THF; (f) Dess-Martin reagent, DCM; (g) K2CO3, 1,4-dioxane; (h) N2H4*H2O, EtOH; (i) Na(CH3COO)3BH, 1,2-dichloroethane; (j) NaH, DMF; (k) aq. HF (55%), MeCN or 1 M n-Bu4NF in THF or KF, Et3N*HCl, MeOH. m,n = 2-8. • Figure 2: Synthesis scheme showing the synthesis of multifunctional compounds with cyclopropanol residues based on the "open" analogs 1,4 -benzothiazepines (i.e. 3-[(4-methoxyphenyl)oxy]-and 3-[(4-methoxyphenylthio)]propane-1-amine derivatives). […] Values represent the mean ± S.D., *** P < 0.0005, **** P < 0.0001 vs. DMSO by unpaired t test; n = 6 - 28. • Figure 6: Time-lapse fluorescence measurements using TECAN Spark 20M plate reader with HEK293 cells expressing WT RyR2 and R-CEPIA1er indicator. […] Fluorescence ratio F/F0, where F0 - average fluorescence signal for the first 90 seconds, F- average fluorescence signal for the last 100 s, was taken for the calculations. […] Data sets were analyzed by unpaired Student's t-test. n.s. non-significant with P=0.59 for Dan, **, P<0.01 with P=0.003 for S36, and *, P<0.05 with P=0.019 for GM1869; (D, E, F) Relative changes in the decay time tau of Ca2+ transients from spontaneous Ca2+ waves (in control/drug) by Dan (D, 10µM), S36 (E, 10 µM), and GM1869 (F, 10 µM) in cardiomyocytes from WT and RyR2R2474S/+ mice. […] Rise times represent the tau values calculated by a mono-exponential fit of the Ca2+ transients from start to the peak of the signal. Ca2+ transients were recorded in control conditions and every 2 min (S36) or 4 min (GM1869) after drug application. **, P = 0.0065 for S36; ****, P = 0.000019 for GM1869, evaluated by paired Student's t-test. […] Decay times represent the tau values calculated by a mono-exponential fit of the Ca2+ transients from half maximum to baseline of the signal. […]

[2] = tested on: saponin-permeabilized ventricular cardiomyocytes (sp-vCM) from WT mice; experiment: Ca2+ wave decay in saponin-permeabilized ventricular cardiomyocytes, WT mice; details: 10 µM, result in words
From the text: as §1

T1 sequence (E9Q401 whole entry): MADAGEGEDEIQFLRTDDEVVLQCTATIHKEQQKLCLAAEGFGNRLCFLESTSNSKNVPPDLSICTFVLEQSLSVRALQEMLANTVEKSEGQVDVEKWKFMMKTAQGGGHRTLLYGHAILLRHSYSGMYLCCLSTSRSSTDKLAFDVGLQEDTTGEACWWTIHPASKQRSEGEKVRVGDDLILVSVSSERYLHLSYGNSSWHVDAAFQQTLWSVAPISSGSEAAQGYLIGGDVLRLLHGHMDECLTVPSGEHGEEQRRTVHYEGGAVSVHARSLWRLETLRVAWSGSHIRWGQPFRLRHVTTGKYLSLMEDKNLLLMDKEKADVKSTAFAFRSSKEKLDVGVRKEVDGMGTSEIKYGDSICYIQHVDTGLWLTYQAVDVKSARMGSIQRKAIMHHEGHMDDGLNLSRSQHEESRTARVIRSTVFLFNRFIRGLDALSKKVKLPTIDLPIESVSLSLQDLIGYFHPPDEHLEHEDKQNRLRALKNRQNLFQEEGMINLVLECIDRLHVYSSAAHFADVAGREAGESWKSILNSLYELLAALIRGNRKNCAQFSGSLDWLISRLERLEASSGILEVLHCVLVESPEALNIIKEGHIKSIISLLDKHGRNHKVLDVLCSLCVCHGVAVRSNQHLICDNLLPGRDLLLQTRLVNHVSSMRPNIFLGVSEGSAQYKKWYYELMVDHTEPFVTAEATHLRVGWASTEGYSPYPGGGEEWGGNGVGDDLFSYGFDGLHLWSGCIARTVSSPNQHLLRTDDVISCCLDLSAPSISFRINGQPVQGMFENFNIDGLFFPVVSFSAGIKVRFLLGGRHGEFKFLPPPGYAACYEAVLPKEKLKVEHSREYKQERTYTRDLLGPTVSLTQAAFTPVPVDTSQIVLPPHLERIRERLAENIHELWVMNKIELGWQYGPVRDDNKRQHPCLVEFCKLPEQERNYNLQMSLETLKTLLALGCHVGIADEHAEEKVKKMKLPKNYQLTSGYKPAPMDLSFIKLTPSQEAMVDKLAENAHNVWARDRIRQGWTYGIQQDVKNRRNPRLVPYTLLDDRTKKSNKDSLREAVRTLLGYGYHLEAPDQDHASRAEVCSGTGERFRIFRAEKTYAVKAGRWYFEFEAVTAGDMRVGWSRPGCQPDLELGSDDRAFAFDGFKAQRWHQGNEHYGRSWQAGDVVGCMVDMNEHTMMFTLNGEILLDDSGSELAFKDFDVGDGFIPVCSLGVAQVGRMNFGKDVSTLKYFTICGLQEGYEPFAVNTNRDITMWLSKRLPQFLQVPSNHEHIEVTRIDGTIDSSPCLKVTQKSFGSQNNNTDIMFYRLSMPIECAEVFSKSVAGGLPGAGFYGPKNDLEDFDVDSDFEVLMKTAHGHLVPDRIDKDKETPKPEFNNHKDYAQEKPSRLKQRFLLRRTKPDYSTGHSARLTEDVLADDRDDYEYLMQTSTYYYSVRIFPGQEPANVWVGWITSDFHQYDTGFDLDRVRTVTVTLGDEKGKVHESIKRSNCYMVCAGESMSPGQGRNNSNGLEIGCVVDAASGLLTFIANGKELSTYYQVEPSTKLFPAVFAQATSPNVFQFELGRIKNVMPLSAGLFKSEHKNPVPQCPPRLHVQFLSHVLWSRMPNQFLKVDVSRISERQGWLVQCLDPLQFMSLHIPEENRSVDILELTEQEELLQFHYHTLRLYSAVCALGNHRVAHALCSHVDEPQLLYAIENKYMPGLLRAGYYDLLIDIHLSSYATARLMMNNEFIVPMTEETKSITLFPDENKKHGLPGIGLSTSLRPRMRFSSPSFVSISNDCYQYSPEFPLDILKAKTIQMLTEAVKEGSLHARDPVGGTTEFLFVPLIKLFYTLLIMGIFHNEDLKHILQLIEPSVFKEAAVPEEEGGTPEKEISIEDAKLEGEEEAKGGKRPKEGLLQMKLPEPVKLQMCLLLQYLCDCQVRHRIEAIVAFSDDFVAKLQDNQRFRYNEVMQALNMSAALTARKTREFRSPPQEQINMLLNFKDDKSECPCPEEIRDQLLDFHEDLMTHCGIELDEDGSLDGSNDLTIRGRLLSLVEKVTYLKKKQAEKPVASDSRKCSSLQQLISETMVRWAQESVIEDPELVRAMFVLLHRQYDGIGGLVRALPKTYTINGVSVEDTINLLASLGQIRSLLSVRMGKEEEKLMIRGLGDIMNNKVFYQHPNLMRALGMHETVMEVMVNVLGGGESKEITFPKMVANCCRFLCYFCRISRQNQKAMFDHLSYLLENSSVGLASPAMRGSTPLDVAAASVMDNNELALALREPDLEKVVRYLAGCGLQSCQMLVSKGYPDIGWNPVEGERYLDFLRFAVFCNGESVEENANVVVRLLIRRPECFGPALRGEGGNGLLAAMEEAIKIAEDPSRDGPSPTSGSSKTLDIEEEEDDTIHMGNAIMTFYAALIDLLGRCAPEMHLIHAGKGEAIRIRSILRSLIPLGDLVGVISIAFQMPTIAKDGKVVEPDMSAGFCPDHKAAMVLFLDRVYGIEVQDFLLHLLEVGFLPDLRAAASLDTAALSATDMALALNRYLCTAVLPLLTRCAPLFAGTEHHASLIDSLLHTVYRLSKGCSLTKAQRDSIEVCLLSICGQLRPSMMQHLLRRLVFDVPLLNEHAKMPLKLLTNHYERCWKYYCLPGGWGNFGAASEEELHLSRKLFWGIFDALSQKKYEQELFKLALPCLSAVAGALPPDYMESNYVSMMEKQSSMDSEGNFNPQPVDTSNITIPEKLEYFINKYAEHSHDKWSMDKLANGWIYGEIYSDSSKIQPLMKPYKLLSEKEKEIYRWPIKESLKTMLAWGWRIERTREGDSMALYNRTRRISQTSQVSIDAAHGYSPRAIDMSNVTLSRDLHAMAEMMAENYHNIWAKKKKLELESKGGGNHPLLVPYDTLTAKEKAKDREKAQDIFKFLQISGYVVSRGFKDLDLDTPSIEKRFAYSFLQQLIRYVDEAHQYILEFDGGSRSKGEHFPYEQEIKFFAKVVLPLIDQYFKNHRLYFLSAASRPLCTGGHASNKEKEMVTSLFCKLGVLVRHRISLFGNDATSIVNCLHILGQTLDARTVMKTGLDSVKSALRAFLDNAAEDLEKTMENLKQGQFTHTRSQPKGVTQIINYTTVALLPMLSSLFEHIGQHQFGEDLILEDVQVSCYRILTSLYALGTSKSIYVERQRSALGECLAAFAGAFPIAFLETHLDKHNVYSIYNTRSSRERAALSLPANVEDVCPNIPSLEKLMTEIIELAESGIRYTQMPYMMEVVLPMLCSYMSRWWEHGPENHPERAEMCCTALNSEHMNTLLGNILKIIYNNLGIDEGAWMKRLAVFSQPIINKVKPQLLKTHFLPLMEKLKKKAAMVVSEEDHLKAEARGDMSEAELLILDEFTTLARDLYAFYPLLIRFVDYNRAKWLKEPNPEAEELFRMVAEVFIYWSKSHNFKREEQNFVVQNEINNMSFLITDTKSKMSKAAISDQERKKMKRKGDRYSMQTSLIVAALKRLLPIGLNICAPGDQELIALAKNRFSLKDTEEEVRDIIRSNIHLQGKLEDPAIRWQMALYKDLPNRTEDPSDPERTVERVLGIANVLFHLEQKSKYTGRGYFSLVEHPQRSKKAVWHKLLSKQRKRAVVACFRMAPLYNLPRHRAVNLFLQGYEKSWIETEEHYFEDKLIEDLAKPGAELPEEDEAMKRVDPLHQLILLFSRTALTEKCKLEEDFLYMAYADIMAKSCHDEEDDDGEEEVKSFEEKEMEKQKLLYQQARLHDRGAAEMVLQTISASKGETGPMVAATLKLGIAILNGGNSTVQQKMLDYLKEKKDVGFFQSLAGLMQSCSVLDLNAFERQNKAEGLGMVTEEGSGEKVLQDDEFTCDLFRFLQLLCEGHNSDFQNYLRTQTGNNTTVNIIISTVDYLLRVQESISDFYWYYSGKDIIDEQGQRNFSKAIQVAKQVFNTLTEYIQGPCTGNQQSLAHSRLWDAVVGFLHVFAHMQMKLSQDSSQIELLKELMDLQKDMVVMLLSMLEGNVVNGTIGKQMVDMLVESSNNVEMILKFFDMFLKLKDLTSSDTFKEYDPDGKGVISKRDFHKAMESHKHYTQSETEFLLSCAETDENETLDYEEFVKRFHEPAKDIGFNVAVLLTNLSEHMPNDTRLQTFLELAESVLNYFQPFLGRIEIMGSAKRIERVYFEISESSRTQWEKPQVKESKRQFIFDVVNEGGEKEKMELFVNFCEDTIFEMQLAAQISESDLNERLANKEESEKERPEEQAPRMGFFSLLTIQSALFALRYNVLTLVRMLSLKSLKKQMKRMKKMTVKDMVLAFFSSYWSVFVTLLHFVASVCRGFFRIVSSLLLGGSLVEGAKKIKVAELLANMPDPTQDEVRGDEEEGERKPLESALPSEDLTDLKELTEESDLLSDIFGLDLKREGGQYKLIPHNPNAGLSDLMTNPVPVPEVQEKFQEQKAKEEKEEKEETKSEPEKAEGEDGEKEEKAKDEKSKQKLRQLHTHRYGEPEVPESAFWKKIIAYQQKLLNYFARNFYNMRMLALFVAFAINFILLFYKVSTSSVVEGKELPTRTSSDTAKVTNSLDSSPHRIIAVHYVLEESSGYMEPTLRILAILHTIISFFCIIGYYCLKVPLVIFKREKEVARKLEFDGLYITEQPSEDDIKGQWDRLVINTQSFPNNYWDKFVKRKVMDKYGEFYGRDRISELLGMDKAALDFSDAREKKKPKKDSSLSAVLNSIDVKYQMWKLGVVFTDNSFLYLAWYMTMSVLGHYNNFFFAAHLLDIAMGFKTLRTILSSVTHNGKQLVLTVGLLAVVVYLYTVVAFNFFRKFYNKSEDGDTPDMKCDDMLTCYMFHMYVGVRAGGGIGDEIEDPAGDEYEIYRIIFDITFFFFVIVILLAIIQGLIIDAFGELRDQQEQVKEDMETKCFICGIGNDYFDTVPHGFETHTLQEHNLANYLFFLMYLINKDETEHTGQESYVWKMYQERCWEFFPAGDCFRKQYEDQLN

Question: O=C1CN(/N=C/c2ccc(-c3ccc([N+](=O)[O-])cc3)o2)C(O)=N1 [dantrolene] was tested. Which “effect on [Ca^2+]ER (R-CEPIA1er fluorescence), in words” value (WT RyR2) did it give?
Answer: increase in R-CEPIA1er fluorescence

Question: And the “Relative changes in the decay time tau of Ca2+ transients from spontaneous Ca2+ waves (in control/drug)” value [1]?
Answer: significantly above 1

Question: What about the “Relative changes in the decay time tau of Ca2+ transients from spontaneous Ca2+ waves (in control/drug)” value [2] of the same compound?
Answer: significantly above 1

From patent EP4548971A1, “1,4-BENZOTHIAZEPINES AND RELATED COMPOUNDS WITH CYCLOPROPANOL GROUPS AS MULTI-TARGETED DRUGS” (Georg-August-Universität Göttingen Stiftung Öffentlichen …, priority 2023, dated 2025)
